{
  "source": "patent US7465559B2",
  "about": "“Method for calibrating antibiotic disk diffusion testing of microorganisms” (Bioscand AB, priority 2001, dated 2008)",
  "key": {"[1]": {"system": "Escherichia coli isolates", "assay": "disk diffusion test of Escherichia coli clinical isolates against norfloxacin, Karolinska hospital, zone diameter histograms 1988 and 1999", "type": "cell-based", "description": "(§1) Different types of susceptibility tests can be used to test the antimicrobic susceptibility of a microorganism. One type of susceptibility test is the disk diffusion test. This is a standardized test, in which a plate containing a growth medium in agar gel is inoculated with a microbial isolate and one or more disks impregnated with fixed concentrations of antibiotics are placed thereon. After appropriate incubation, the diameter of zones of inhibition around the disks (if present) are registered in order to determine the sensitivity of the inoculated microorganism to the particular antimicrobial agent impregnated in each disk.\nThe microbial species to be tested can be any cultivable microorganism, such as a bacterial species or a fungal species. In order to obtain species-related and laboratory-related interpretive breakpoints, a histogram of for example clinical isolates can be used. The method is especially suitable for analyzing inhibition zone diameters from disk diffusion tests with clinical isolates from a bacterial species, which may contain resistant strains against an antibiotic. Thus, no outliers are excluded. The number of isolates or percent isolates are plotted on the y-axis and the growth inhibition zone diameter values from paper disks impregnated with the antibiotic are plotted on the x-axis. When the method of O'Brien et al. (J. Am. Med. Assoc. 210:84, 1969) is used, histograms are obtained with percent isolates on the y-axis and zone diameter values from 6 mm (paper disk diameter) to 60 mm on the x-axis. However, the inventive method is equally well adapted for a microdilution tests, the concentration data being minimal inhibitory concentrations. All data can be computerized.\nIt can be seen that the zone diameter values for these clinical isolates cluster around 29-30 mm with a distribution of ±8 mm.\nThe results from 1988 in FIG. 1 were compared with similar results eleven years later (FIG. 2). In this histogram a number of isolates now appear, which have inhibition zones all the way down to no zone, the size of the 6 mm disk. The comparison was accomplished by means of computer analysis according to the inventive method for calibrating antimicrobic susceptibility testings of microorganisms.\nFirst, the slope downwards was tracked and the shift to decreasing values at the peak position identified by comparing sliding means (each based on two zone diameter figures). Then, the percentages of the isolates of the upper half of the population were determined and converted to probit values. A regression using the least squares method was then performed and the theoretical percentages for the whole population calculated.\nIn this calculation, it is assumed that 3 SD below the mean includes 99.86 percent of the normally susceptible strains in this group. A suitable limit for susceptibility interpretation and comparative analysis of antimicrobic resistance could then be defined as three times the standard deviation below the mean value."}, "E. coli [2]": {"system": "E. coli", "assay": "disk diffusion test of E. coli against gentamicin, laboratory AR (South America), NCCLS standardization", "type": "cell-based, Escherichia coli", "settings": "5 μg gentamicin disk", "description": "as §1\n(§2) In this example histograms of zone diameter values from disk test results for E. coli tested against the antibiotic gentamicin were analyzed according to the principle of normalized resistance interpretation. One laboratory (KS) used the SRGA (Swedish Reference Group for Antibiotics) methodology and a disk content of 10 μg gentamicin, whereas the other laboratory on a different continent (AR, a clinical microbiology laboratory in South America) used the NCCLS (National Committee for Clinical Laboratory Standards) standardization and a 5 μg gentamicin disk.\n(§3) The different methods used result in different positionings of the major, susceptible populations of strains (FIG. 5). […]"}, "E. coli [3]": {"system": "E. coli", "assay": "disk diffusion test of E. coli against gentamicin, laboratory KS, SRGA methodology", "type": "cell-based, Escherichia coli", "settings": "10 μg gentamicin disk", "description": "as §1, §2, §3"}},
  "data": [
    {"compound": "CCn1cc(C(=O)O)c(=O)c2cc(F)c(N3CCNCC3)cc21", "note": "[norfloxacin]", "values": [
      {"measurement": "mean value of inhibition zone diameters, customary statistical procedure", "setting": "[1]; 1988, 3756 isolates, disk 10 μg, SD 3.22", "value": 29.16, "unit": "mm"},
      {"measurement": "mean of normalized Gaussian distribution of theoretical normal population", "setting": "[1]; 1988, 3756 isolates, disk 10 μg, SD 3.25", "value": 29.27, "unit": "mm"},
      {"measurement": "zone diameter values of clinical isolates cluster around", "setting": "[1]; 1988 histogram, disk content 10 μg, distribution ±8 mm", "value": "29-30 mm"},
      {"measurement": "limit for resistance (zone breakpoint, 3 SD below normalized mean)", "setting": "[1]; 1988 population", "value": 19, "unit": "mm"},
      {"measurement": "percent resistance of isolates", "setting": "[1]; 1988 population, limit 19 mm", "value": 0.56, "unit": "%"},
      {"measurement": "limit for resistance (zone breakpoint, 3 SD below normalized mean)", "setting": "[1]; 1999 population", "value": 20, "unit": "mm"},
      {"measurement": "percent resistance of isolates", "setting": "[1]; 1999 population, limit 20 mm", "value": 10.8, "unit": "%"},
      {"measurement": "mean of normalized Gaussian distribution of theoretical normal population", "setting": "[1]; eleven years later (1999), 5944 isolates, SD 3.22", "value": 30.49, "unit": "mm"},
      {"measurement": "mean value of inhibition zone diameters, customary statistical procedure", "setting": "[1]; eleven years later (1999), all 5944 isolates, SD 7.39", "value": 28.24, "unit": "mm"}
    ]},
    {"compound": "gentamicin", "values": [
      {"measurement": "R-limit for resistance (normalized zone breakpoint)", "setting": "E. coli [2]", "value": "< 17", "unit": "mm"},
      {"measurement": "R-limit for resistance (normalized zone breakpoint)", "setting": "E. coli [3]", "value": "< 21", "unit": "mm"}
    ]}
  ]
}
